# Reference: publication PMC8395308 (International Journal of Molecular Sciences, 2021)
# “And” between values parts separate entries of the source, which are not always exact repeats. Equal entries are not always repeated. “Also recorded” adds a separate entry of the source. Structures can show the parent of a compound that is named as a salt.
# Assays:
# BoNT/E = tested on: BoNT/E; parameters: species or system CD-1 mice; settings: mouse, in vivo
# BoNT/A = BoNT/A (Clostridium botulinum, UniProt P0DPI0); parameters: species or system CD-1 mice; settings: mouse, in vivo; for Survival (protection) of treated mice / Therapeutic effect versus solvent (log-rank test): ip
# BoNT/A, sequence (P0DPI0 2-448 limits assumed): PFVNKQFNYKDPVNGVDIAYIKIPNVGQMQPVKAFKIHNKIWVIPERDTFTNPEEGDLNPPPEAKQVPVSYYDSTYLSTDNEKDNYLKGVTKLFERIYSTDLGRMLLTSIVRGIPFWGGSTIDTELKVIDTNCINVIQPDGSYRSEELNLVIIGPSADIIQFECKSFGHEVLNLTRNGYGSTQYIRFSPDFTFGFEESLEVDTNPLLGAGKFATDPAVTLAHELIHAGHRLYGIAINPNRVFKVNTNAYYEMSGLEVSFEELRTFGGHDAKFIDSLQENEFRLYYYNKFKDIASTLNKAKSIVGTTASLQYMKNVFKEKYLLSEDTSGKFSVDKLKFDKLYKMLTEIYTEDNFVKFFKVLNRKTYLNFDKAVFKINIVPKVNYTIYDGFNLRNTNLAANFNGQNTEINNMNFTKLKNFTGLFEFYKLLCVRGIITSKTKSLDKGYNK
# BoNT/A, sequence (P0DPI0 449-1296 limits assumed): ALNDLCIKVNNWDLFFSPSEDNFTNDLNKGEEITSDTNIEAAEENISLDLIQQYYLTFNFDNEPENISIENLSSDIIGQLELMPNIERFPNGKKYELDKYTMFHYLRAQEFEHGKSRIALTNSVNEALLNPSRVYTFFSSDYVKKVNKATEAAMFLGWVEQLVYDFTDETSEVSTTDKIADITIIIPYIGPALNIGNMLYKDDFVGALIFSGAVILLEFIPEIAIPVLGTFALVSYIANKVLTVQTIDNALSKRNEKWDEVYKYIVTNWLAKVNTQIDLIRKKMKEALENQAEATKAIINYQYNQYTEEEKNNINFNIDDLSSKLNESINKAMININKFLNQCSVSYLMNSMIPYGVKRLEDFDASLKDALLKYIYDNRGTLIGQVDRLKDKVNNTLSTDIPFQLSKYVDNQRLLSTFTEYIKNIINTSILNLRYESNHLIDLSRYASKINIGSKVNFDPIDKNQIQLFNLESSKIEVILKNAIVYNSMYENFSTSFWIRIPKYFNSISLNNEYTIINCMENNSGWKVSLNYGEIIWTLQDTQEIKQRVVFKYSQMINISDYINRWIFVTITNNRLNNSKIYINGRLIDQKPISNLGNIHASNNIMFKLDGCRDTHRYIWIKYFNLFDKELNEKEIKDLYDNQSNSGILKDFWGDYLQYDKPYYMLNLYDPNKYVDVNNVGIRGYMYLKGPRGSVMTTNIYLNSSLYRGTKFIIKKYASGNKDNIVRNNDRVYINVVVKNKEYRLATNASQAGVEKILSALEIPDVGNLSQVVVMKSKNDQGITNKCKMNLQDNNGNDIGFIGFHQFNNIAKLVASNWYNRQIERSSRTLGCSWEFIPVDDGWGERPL
# [1] = target: receptor binding domain (HC fragment) of BoNT/A binding to the fourth luminal domain of SV2C (Clostridium botulinum, UniProt P0DPI0); assay: biochemical; parameters: species or system Mus musculus; settings: for IC50: IC50 (µM), TSP-RSP interaction inhibition; for inhibition at 100 µM: read-out: Maximal Inhibition (%)
# receptor binding domain (HC fragment) of BoNT/A binding to the fourth luminal domain of SV2C, sequence (P0DPI0 872-1296 limits assumed): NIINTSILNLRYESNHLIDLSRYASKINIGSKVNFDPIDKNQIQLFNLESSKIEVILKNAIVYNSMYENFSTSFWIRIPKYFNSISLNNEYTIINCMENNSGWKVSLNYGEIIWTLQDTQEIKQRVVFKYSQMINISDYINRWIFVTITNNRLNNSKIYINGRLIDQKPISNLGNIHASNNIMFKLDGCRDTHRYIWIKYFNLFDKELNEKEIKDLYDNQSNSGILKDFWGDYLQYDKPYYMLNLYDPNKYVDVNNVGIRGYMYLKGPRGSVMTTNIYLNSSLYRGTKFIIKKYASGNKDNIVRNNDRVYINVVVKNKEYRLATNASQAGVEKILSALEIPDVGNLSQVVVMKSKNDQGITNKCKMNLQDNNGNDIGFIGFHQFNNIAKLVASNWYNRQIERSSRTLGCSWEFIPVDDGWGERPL
smiles,measurement,setting,value
"NC(Cc1cc(O)c(O)cc1O)C(=O)O (racemic) [6-OHD, 6-Hydroxy-DL-DOPA]",median TTD / median survival time of treated mice,BoNT/E,9.8 h
same,median survival time (hr) treated,BoNT/E,9.8 h
same,median survival time (hr) treated,BoNT/A,28.7 h
same,survival time of the nonsurviving treated animals,BoNT/A,28.7 h
same,Survival (protection) of treated mice,BoNT/A,33%
same,Therapeutic effect versus solvent (log-rank test),BoNT/A,Significant beneficial therapeutic effects
same,IC50,[1],1 µM
same,inhibition at 100 µM,[1],98%
"O=C(O)C1=CC(=C(c2ccc(O)c(C(=O)O)c2)c2ccc(O)c(C(=O)O)c2)C=CC1=O [ATA, Aurintricarboxylic acid]",Survival of treated mice,BoNT/E; ip,100%
same,Therapeutic effect versus solvent (log-rank test),BoNT/E; ip,fully protective; also recorded: completely protected
same,survival time of the nonsurviving treated animals,BoNT/A,96 h
same,Survival (protection) of treated mice,BoNT/A,92% and 91.6%
same,Therapeutic effect versus solvent (log-rank test),BoNT/A,Significant beneficial therapeutic effects
same,IC50,[1],2 µM
same,inhibition at 100 µM,[1],100%
"NC(CO)C(=O)NNCc1ccc(O)c(O)c1O (stereo not drawn) [Benserazide, Benserazide hydrochloride]",median TTD / median survival time of treated mice,BoNT/E,10.7 h
same,median survival time (hr) treated,BoNT/E,10.7 h
same,median survival time (hr) treated,BoNT/A,29.8 h
same,median survival time / TTD in the treated group,BoNT/A,29.8 h
same,Therapeutic effect versus solvent (log-rank test),BoNT/A,Significant beneficial therapeutic effects
same,IC50,[1],18 µM
same,inhibition at 100 µM,[1],95%
CO/N=C(\C(=O)N[C@@H]1C(=O)N2C(C(=O)O)=C(COC(C)=O)CS[C@H]12)c1csc(N)n1 [Cefotaxime sodium],median survival time (hr) treated,BoNT/A,21.0 h
same,Therapeutic effect versus solvent (log-rank test),BoNT/A,did not exert beneficial therapeutic effects
same,Maximal Inhibition (%),[1],91%
same,IC50,[1],3 µM
same,inhibition at 100 µM,[1],~90%
CC(=O)OCC1=C(C(=O)O)N2C(=O)[C@@H](NC(=O)CCC[C@@H](N)C(=O)O)[C@H]2SC1 [Cephalosporin C zinc salt],IC50,[1],27 µM
same,inhibition at 100 µM,[1],~90%
Nc1nc2[nH]c(=O)cnc2c(=O)[nH]1 [Isoxanthopterin],median survival time (hr) treated,BoNT/A,26.67 h
same,Therapeutic effect versus solvent (log-rank test),BoNT/A,did not exert beneficial therapeutic effects
same,IC50,[1],34 µM
same,inhibition at 100 µM,[1],68%
"C=CC1=C(C)c2cc3[nH]c(cc4nc(cc5[nH]c(cc1n2)c(C)c5CCC(=O)O)C(CCC(=O)O)=C4C)c(C)c3C=C [PPIX, Protoporphyrin IX disodium]",median TTD / median survival time of treated mice,BoNT/E,10.7 h
same,median survival time (hr) treated,BoNT/E,10.7 h
same,median survival time (hr) treated,BoNT/A,26.0 h
same,median survival time / TTD in the treated group,BoNT/A,26.0 h
same,Therapeutic effect versus solvent (log-rank test),BoNT/A,Significant beneficial therapeutic effects
same,IC50,[1],84 µM
same,inhibition at 100 µM,[1],~80%
NCCOc1cc(C(=O)Nc2cc(OCCN)c3ccccc3n2)nc(C(=O)Nc2cc(OCCN)c3ccccc3n2)c1 [Pyridostatin trifluoroacetate salt],median survival time (hr) treated,BoNT/A,22.17 h
same,Therapeutic effect versus solvent (log-rank test),BoNT/A,did not exert beneficial therapeutic effects
same,IC50,[1],4 µM
same,inhibition at 100 µM,[1],~80%
C[C@@](Cc1ccc(O)c(O)c1)(NN)C(=O)O [carbidopa],Inhibition of the interaction between HC/A fragment and SV2C,[1],failed to inhibit
